{"source": "paper PMC5104769", "about": "“Concentration-Dependent Dual Mode of Zn Action at Serotonin 5-HT1A Receptors: In Vitro and In Vivo Studies” (Molecular neurobiology, 2015)", "key": {"Sprague Dawley rats": {"tested_on": "Sprague Dawley rats", "test": "5-HT behavioural syndrome (flat body posture, forepaw treading) in rats", "assay_type": "in vivo, rat", "details": "for behavioural score FBP (A) VEH / behavioural score FT (A) VEH: max score 10", "description": "(§1) The experiments were performed on male Albino Swiss mice (23–25 g) and Sprague Dawley rats (200–250 g) from Charles River, Germany as well as TPH2-Cre-ER^T2 x flx-5-HT1A-flx-YFP mice from Jackson Labs, Bangor ME and the Hen lab, respectively. The animals were kept under standard laboratory conditions with respect to lighting (light phase 7:00–19:00) and temperature (19–21 °C). Food and water were freely available. Each experimental group consisted of eight to ten animals. All of the animals were experimentally naive and were used only once in each test. The experiments were performed during the light period (9:00–14:00 h). All of the procedures were conducted according to the guidelines of the National Institutes of Health Animal Care and Use Committee and were approved by the Ethics Committees of the Institute of Pharmacology, Polish Academy of Sciences in Krakow and the Animal Care Committee, University of Ottawa.\nZn (all doses refer to mg Zn/kg) was given as either Zn hydroaspartate (Farmapol, Poland) or Zn chloride (Sigma-Aldrich) and was dissolved in 0.9 % NaCl and administered intraperitoneally (i.p.). 8-OH-DPAT and WAY-100635 were dissolved in aqua pro-injection and were administered subcutaneously (s.c.). Controls were treated with the appropriate diluent, which was indicated as VEH on the graphs and in the tables.\nThe experiments were conducted according to previously published procedure, with a modification to the ranked intensity scale. Briefly, the rats were individually placed in cages (30×25×25 cm) 5 min before tested compounds were injected. Forepaw treading (FT) and flat body posture (FBP) were scored using a ranked intensity scale, where 0=absent, 1=equivocal and 2=present. The Zn (2, 5, 7.5 and 11.5 mg Zn/kg, given as a Zn hydroaspartate)-induced behavioural syndrome was scored for each animal 3, 6, 9, 12 and 15 min after the Zn treatment. Each observation session lasted for 45 s. The maximum score, which was summed over 5 observation periods, was 10 for each symptom/rat. The effect of Zn on the behavioural syndrome induced by 8-OH-DPAT (5 mg/kg) was scored using the same scale. Zn was administered 60 min before 8-OH-DPAT, and the animals were scored 3, 6, 9, 12 and 15 min after the 8-OH-DPAT treatment."}, "Body temperature in rats": {"test": "Body temperature in rats", "assay_type": "in vivo, rat", "details": "Zn: 30 min at 7.5 and 11.5 mg/kg, 60 min at 5, 7.5 and 11.5 mg/kg", "description": "as §1, with “Ottawa. […]” for “Ottawa.”\nThe effects of Zn (2, 5, 7.5 and 11.5 mg Zn/kg for rats and 2 and 5 mg/kg for mice, given as a Zn hydroaspartate), 8-OH-DPAT (5 mg/kg) and WAY-100635 (0.1mg/kg) on rectal body temperature were recorded 30 and 60 min after their acute administration. The results were expressed as a change in body temperature with respect to the basal body temperature, which was measured at the beginning of the experiments."}, "[1]": {"details": "Zn 2 mg/kg 60 min before 8-OH-DPAT 5 mg/kg"}, "[2]": {"details": "Zn 5 mg/kg 60 min before 8-OH-DPAT 5 mg/kg"}, "[3]": {"details": "Zn 7.5 mg/kg 60 min before 8-OH-DPAT 5 mg/kg"}, "[4]": {"details": "Zn 11.5 mg/kg 60 min before 8-OH-DPAT 5 mg/kg"}}}
{"smiles": "[Zn+2]", "note": "[Zn, Zinc]", "values": [{"measurement": "effect on 8-OH-DPAT-induced FBP and FT (in words)", "setting": "Sprague Dawley rats; FBP at 11.5 mg/kg, FT at 7.5 and 11.5 mg/kg Zn", "value": "blocked the 8-OH-DPAT-induced FBP and FT"}, {"measurement": "behavioural score FBP (B) 8-OH-DPAT", "setting": "Sprague Dawley rats; [1]", "value": "7.7±0.3"}, {"measurement": "behavioural score FT (B) 8-OH-DPAT", "setting": "Sprague Dawley rats; [1]", "value": "7.1±0.6"}, {"measurement": "behavioural score FBP (A) VEH", "setting": "Sprague Dawley rats; Zn 2 mg/kg alone", "value": "0.2±0.2"}, {"measurement": "behavioural score FT (A) VEH", "setting": "Sprague Dawley rats; Zn 2 mg/kg alone", "value": "0.3±0.2"}, {"measurement": "behavioural score FBP (B) 8-OH-DPAT", "setting": "Sprague Dawley rats; [2]", "value": "7.5±0.8"}, {"measurement": "behavioural score FT (B) 8-OH-DPAT", "setting": "Sprague Dawley rats; [2]", "value": "7.5±0.5"}, {"measurement": "behavioural score FBP (A) VEH", "setting": "Sprague Dawley rats; Zn 5 mg/kg alone", "value": "0.3±0.3"}, {"measurement": "behavioural score FT (A) VEH", "setting": "Sprague Dawley rats; Zn 5 mg/kg alone", "value": "0.2±0.2"}, {"measurement": "behavioural score FBP (B) 8-OH-DPAT", "setting": "Sprague Dawley rats; [3]", "value": "7.0±0.3"}, {"measurement": "behavioural score FT (B) 8-OH-DPAT", "setting": "Sprague Dawley rats; [3]", "value": "5.0±0.6"}, {"measurement": "behavioural score FBP (A) VEH", "setting": "Sprague Dawley rats; Zn 7.5 mg/kg alone", "value": "0.5±0.5"}, {"measurement": "behavioural score FT (A) VEH", "setting": "Sprague Dawley rats; Zn 7.5 mg/kg alone", "value": "0.2±0.2"}, {"measurement": "behavioural score FBP (B) 8-OH-DPAT", "setting": "Sprague Dawley rats; [4]", "value": "3.4±0.6"}, {"measurement": "behavioural score FT (B) 8-OH-DPAT", "setting": "Sprague Dawley rats; [4]", "value": "0.4±0.2"}, {"measurement": "behavioural score FBP (A) VEH", "setting": "Sprague Dawley rats; Zn 11.5 mg/kg alone", "value": "0.5±0.2"}, {"measurement": "behavioural score FT (A) VEH", "setting": "Sprague Dawley rats; Zn 11.5 mg/kg alone", "value": "0.2±0.2"}, {"measurement": "induction of FBP or FT (in words)", "setting": "Sprague Dawley rats; Zn 2, 5, 7.5 and 11.5 mg/kg alone", "value": "did not induce FBP or FT"}, {"measurement": "change in body temperature", "setting": "Body temperature in rats", "value": "significantly decreased the body temperature"}]}
